Tests used:
human TCH229 [1] = assay: Expression of human TCH229 gene in RPTEC stimulated with stimulants (TaqMan PCR); format: cell-based; details: stimulant 10 ng/ml, 0.5-8 hours after addition
Method: (§1) (2) Preparation of cDNA from Normal Human Cells Stimulated with Various Stimulants a) Renal proximal tubular epithelial cell (RPTEC) and human renal cortical epithelial cell (HRCE) (both available from Cambrex BioScience Walkersvill) were plated on a 24-well collagen-coated plate in 1×10^5 cells/well and then cultured overnight, and after the medium was replaced by […] (T3)-free Bullet Kit REGM (BIO WHITTAKER), the cells were cultured for additional 30 minutes. b) As stimulants, TGF-β1 (Wako Pure Chemical Industries, Ltd.), TNF-α (Genzyme), IL-1β (Genzyme), IL-6 (Genzyme) and PMA (Wako Pure Chemical Industries, Ltd.) were used. A solution was prepared by diluting each of these 5 stimulants at the final concentration of 10 ng/ml with T3-free Bullet Kit REGM (BIO WHITTAKER). c) Just after the culture supernatants of the RPTEC and HRCE in the above item a) were removed, the solution prepared in the above item b) was added in a volume of 500 μl/well, and the cells were cultured. As the control, a mixture of the 5 stimulants dissolved in a solvent was diluted at the same ratio as the stimulants with T3-free Bullet Kit REGM (BIO WHITTAKER) to prepare a solution, and 500 μl of the solution was added to each well of RPTEC and HRCE, and the cells were cultured. d) 0.5, 1, 2, 4, 6 and 8 hours after addition of the stimulants, the cells were recovered respectively, and total RNA was prepared by using RNeasy Mini Kit (Quiagen). The total RNA thus prepared was subjected to reverse transcription reaction using TaqMan Reverse Transcription Reagents (manufactured by Applied Biosystems, Inc.) to prepare the cDNA. (3) Analysis of Expression of Human TCH229 Gene in Commercially Available Normal Human Cells
(§2) The expression level (copy number) of human TCH229 in the cDNAs prepared from the normal human cells and the PRTEC and HRCE stimulated with the stimulants was measured by TaqMan PCR with the 2 primer DNAs used in Example 4 (that is, primer TMF (SEQ ID NO: 19) and primer TMR (SEQ ID NO: 20)) and TaqMan probe P1 (SEQ ID NO: 21). For the cDNAs prepared respectively from the normal human cells and the PRTEC and HRCE stimulated with the stimulants, the expression level (copy number) of ribosomal RNA (18S) was assayed by using Eukaryotic 18S rRNA Pre-Developed TaqMan Assay Reagents (manufactured by Applied Biosystems, Inc.), and the expression level (copy number) of human glyceraldehyde-3-phosphate dehydrogenase (GAPDH) was also assayed by using human GAPD (GAPDH) (manufactured by Applied Biosystems, Inc.). […]

human TCH229 [2] = assay: Expression of human TCH229 gene in HRCE stimulated with stimulants (TaqMan PCR); format: cell-based; details: stimulant 10 ng/ml, 0.5-8 hours after addition
Method: as §1, §2

Compound | fluctuation of expression of human TCH229 (mRNA, relative to human GAPDH) as compared with the control (human TCH229 [1]) | fluctuation of expression of human TCH229 (mRNA, relative to human GAPDH) as compared with the control (human TCH229 [2])
TNF-α | decreased depending on culture time | decreased depending on culture time
CCCCCCCCCCCCCC(=O)O[C@@H]1[C@@H](C)[C@@]2(O)[C@@H](C=C(CO)C[C@]3(O)C(=O)C(C)=C[C@@H]23)[C@@H]2C(C)(C)[C@]12OC(C)=O [PMA] | decreased depending on culture time | decreased depending on culture time
TGF-β1: stimulant, TGF-β1 (Wako Pure Chemical Industries, Ltd.) | decreased depending on culture time | decreased depending on culture time
IL-1β: stimulant, IL-1β (Genzyme) | decreased depending on culture time | decreased depending on culture time

Source: patent US7355001B2, “Organic anion transport protein TCH229” (Takeda Pharmaceutical Company Limited, priority 2002, dated 2008)
